# Assay: Displacement of [3H]Ro151788 from GABA-A receptor in Wistar rat cerebellar membrane after 1 hr by liquid scintillation counting
# Assay type: cell membranes, Cerebellum
structure (smiles),measurement,value
CCc1ccc2[nH]cc(C(=O)NCCF)c(=O)c2c1,Ki,3.6 nM
